Source: US11976075B2, “Inhibitors of the MYST family of lysine acetyl transferases” (Isosterix, Inc., priority 2022, dated 2024)

biological target: T1, Recombinant KAT6A/MOZ (488-778) protein (Homo sapiens, UniProt Q92794); assay: Kat6a AlphaLISA Inhibition Screening Assay; assay type: biochemical; conditions: 10′ pre-incubation; Table 2; read-out: Kat6A biochemical assay: IC50
T1 construct: Recombinant KAT6A/MOZ (488-778) protein (Active motif, Catalog #81223); purchased Active Motif 81223
Procedure: The Kat6a inhibitory activity of test compounds was determined using an Alpha Screen-based detection method. The assay reactions were conducted in a volume of 10 μL in Alpha Plate, White 384 well plate (cat #6008280, Perkin Elmer). The enzymatic reactions were performed in assay buffer pH 8.0 (50 mM Tris-HCl, 0.1 mM EDTA, 0.01% Tween-20, 1 mM Dithiothreitol, 0.1% BSA (fatty acid free) and 330 nM TSA (Trichostatin A)). 10 μL reaction volume consisting of 25 nM of Recombinant KAT6A/MOZ (488-778) protein (Active motif, Catalog #81223), 400 nM Acetyl coenzyme A (Catalog #A2056, Sigma), 200 nM of Histone H3 peptide [(amino acids 1-21), biotin-labeled (BPS Biosciences, Catalog #52011,)] and a 10-point dose response curve for test/tool compounds were prepared. Enzyme and compounds solution were pre-incubated in assay plate for 60 or 10 min at room temperature then substrate and Acetyl coenzyme A solution were added to the plate. After addition, the plate was sealed with adhesive seals and incubated for 120 minutes at room temperature.
After 120 minutes of incubation, 5 μL (10 μg/mL) of AlphaLISA anti-acetyl-Lysine acceptor beads (Perkin Elmer, Catalog #AL143C) were added to the plate and it was incubated for 60 minutes at room temperature. Then 10 μL (10 μg/mL) of Alpha Streptavidin donor beads (Perkin Elmer, Catalog #6760002S) were added to the plate which was further incubated for 60 minutes at room temperature. After incubation, the alpha signal was recorded by using Perkin Elmer Envision multi-mode reader.
NA means the compound was not active at the concentration tested. […] NT means not tested.

T1 sequence (Q92794 488-778): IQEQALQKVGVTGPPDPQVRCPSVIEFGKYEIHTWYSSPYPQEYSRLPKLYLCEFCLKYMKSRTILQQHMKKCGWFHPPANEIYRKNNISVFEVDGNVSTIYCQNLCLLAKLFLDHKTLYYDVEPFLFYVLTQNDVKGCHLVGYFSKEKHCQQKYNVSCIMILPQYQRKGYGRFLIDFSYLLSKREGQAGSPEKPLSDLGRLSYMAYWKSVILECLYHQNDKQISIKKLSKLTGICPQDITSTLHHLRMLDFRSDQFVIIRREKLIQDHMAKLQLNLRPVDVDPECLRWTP

| Compound | IC50 |
| --- | --- |
| C=CC(=O)NCC(=O)NCc1ccc2cc(C(=O)NS(=O)(=O)c3ccccc3F)oc2c1 [Synthetic Example 39, 6-((2-acrylamidoacetamido)methyl)-N-((2-fluorophenyl)sulfonyl)benzofuran-2-carboxamide] | 20 to 50 µM |
| C=CC(=O)NCc1ccnc(-c2cc(C)cc(C(=O)NNS(=O)(=O)c3ccccc3F)c2)c1 [compound 12] | ≤ 10 µM |
| C#CC(=O)NCc1ccnc(-c2cc(C)cc(C(=O)NNS(=O)(=O)c3ccccc3F)c2)c1 [compound 13] | ≤ 10 µM |
| C=CC(=O)NCc1ccc2cc(C(=O)NS(=O)(=O)c3ccccc3F)oc2c1 [Synthetic Example 10, 6-(acrylamidomethyl)-N-((2-fluorophenyl)sulfonyl)benzofuran-2-carboxamide] | ≤ 10 µM |

same assay, conditions: 10′ pre-incubation; Table 3; read-out: Kat6A Biochemical assay: IC50

| Compound | IC50 |
| --- | --- |
| COc1cc(Cn2cccn2)cc2c1c(NS(=O)(=O)c1ccccc1F)nn2C [compound 122, N-(6-((1H-pyrazol-1-yl)methyl)-4-methoxy-1-methyl-1H-indazol-3-yl)-2-fluorobenzenesulfonamide] | 20 to 50 µM |
| COc1cc(Cn2ccc(CN)n2)cc2onc(NS(=O)(=O)CC3CCCCC3)c12 [compound 128] | 20 to 50 µM |
| CCC(=O)NCc1ccn(Cc2cc(OC)c3c(NS(=O)(=O)CC4CCCCC4)noc3c2)n1 [compound 129] | ≤ 10 µM |
| COc1cc(Cn2cccn2)cc2c1c(NS(=O)(=O)CC1CCCCC1)nn2C [compound 121, N-(6-((1H-pyrazol-1-yl)methyl)-4-methoxy-1-methyl-1H-indazol-3-yl)-1-cyclohexylmethanesulfonamide] | 10 to 20 µM |
| COc1cc(Cn2cccn2)cc2nnc(NS(=O)(=O)CC3CCCCC3)n12 [compound 127, N-(7-((1H-pyrazol-1-yl)methyl)-5-methoxy-[1,2,4]triazolo[4,3-a]pyridin-3-yl)-1-cyclohexylmethanesulfonamide] | ≤ 10 µM |

same assay, conditions: 60′ pre-incubation; Table 2; read-out: Kat6A biochemical assay: IC50

| Compound | IC50 |
| --- | --- |
| COc1ccccc1S(=O)(=O)Nc1noc2cc(CN3CCC(C(=O)NCC#N)CC3)cc(OC)c12 [Synthetic Example 63, N-(cyanomethyl)-1-((4-methoxy-3-((2-methoxyphenyl)sulfonamido)benzo[d]isoxazol-6-yl)methyl)piperidine-4-carboxamide] | > 10 µM |
| COC/C=C/C(=O)NCc1cnn(Cc2cc(OC)c3c(NS(=O)(=O)c4ccccc4OC)noc3c2)c1 [Synthetic Example 54, (E)-4-methoxy-N-((1-((4-methoxy-3-((2-methoxyphenyl)sulfonamido)benzo[d]isoxazol-6-yl)methyl)-1H-pyrazol-4-yl)methyl)but-2-enamide] | ≤ 10 µM |
| COc1cc(Cn2cc3c(n2)CNC3)cc2onc(NS(=O)(=O)CC3CCCCC3)c12 [Synthetic Example 28B, 1-cyclohexyl-N-(6-((5,6-dihydropyrrolo[3,4-c]pyrazol-2(4H)-yl)methyl)-4-methoxybenzo[d]isoxazol-3-yl)methanesulfonamide] | 10 to 20 µM |
| C#CC(=O)NCc1cnn(Cc2cc(OC)c3c(NS(=O)(=O)c4ccccc4C(=O)NC)noc3c2)c1 [compound 68, 2-(N-(4-methoxy-6-((4-(propiolamidomethyl)-1H-pyrazol-1-yl)methyl)benzo[d]isoxazol-3-yl)sulfamoyl)-N-methylbenzamide] | ≤ 10 µM |
| C=CC(=O)N1CCN(c2ccccc2-c2cc(OC)c3c(NS(=O)(=O)c4c(OC)cccc4OC)noc3c2)CC1 [Synthetic Example 58, N-(6-(2-(4-acryloylpiperazin-1-yl)phenyl)-4-methoxybenzo[d]isoxazol-3-yl)-2,6-dimethoxybenzenesulfonamide] | ≤ 10 µM |
| C=CS(=O)(=O)NCc1ccn(Cc2cc(OC)c3c(NS(=O)(=O)c4ccccc4OC)noc3c2)n1 [Synthetic Example 22, 2-methoxy-N-(4-methoxy-6-((3-(vinylsulfonamidomethyl)-1H-pyrazol-1-yl)methyl)benzo[d]isoxazol-3-yl)benzenesulfonamide] | ≤ 10 µM |
| C#CC(=O)NCC(=O)NCc1cnn(Cc2cc(OC)c3c(NS(=O)(=O)c4ccccc4OC)noc3c2)c1 [Synthetic Example 60, N-(2-(((1-((4-methoxy-3-((2-methoxyphenyl)sulfonamido)benzo[d]isoxazol-6-yl)methyl)-1H-pyrazol-4-yl)methyl)amino)-2-oxoethyl)propiolamide] | ≤ 10 µM |
| C#CC(=O)NCc1cnn(Cc2cc(OC)c3c(NS(=O)(=O)c4c(OC)cccc4OC)noc3c2)c1 [Synthetic Example 34, N-((1-((3-((2,6-dimethoxyphenyl)sulfonamido)-4-methoxybenzo[d]isoxazol-6-yl)methyl)-1H-pyrazol-4-yl)methyl)propiolamide] | ≤ 10 µM |
| C#CC(=O)NCc1ccnc(-c2cc(C)cc(C(=O)NNS(=O)(=O)c3c(OC)cccc3OC)c2)c1 [Synthetic Example 16, N-((2-(3-(2-((2,6-dimethoxyphenyl)sulfonyl)hydrazine-1-carbonyl)-5-methylphenyl)pyridin-4-yl)methyl)propiolamide] | ≤ 10 µM |
| C#CC(=O)NC1CCN(Cc2cc(OC)c3c(NS(=O)(=O)c4ccccc4OC)noc3c2)C1 (stereo not drawn) [Synthetic Example 48, N-(1-((4-methoxy-3-((2-methoxyphenyl)sulfonamido)benzo[d]isoxazol-6-yl)methyl)pyrrolidin-3-yl)propiolamide] | ≤ 10 µM |
| C#CC(=O)NCc1cnn(Cc2cc(OC)c3c(NS(=O)(=O)c4cccc(OC)c4)noc3c2)c1 [Synthetic Example 35, N-((1-((4-methoxy-3-((3-methoxyphenyl)sulfonamido)benzo[d]isoxazol-6-yl)methyl)-1H-pyrazol-4-yl)methyl)propiolamide] | ≤ 10 µM |

same assay, conditions: 60′ pre-incubation; Table 3; read-out: Kat6A Biochemical assay: IC50

| Compound | IC50 |
| --- | --- |
| C#CC(=O)N1CCN(c2ccnc(-c3cc(OC)c4c(NS(=O)(=O)c5c(OC)cccc5OC)noc4c3)c2)CC1 [compound 119, 2,6-dimethoxy-N-(4-methoxy-6-(4-(4-propioloylpiperazin-1-yl)pyridin-2-yl)benzo[d]isoxazol-3-yl)benzenesulfonamide] | ≤ 10 µM |
| C#CC(=O)NCc1cnn(Cc2cc(OC)c3c(NS(=O)(=O)c4ccccc4OC)n[nH]c3c2)c1 [compound 76, N-((1-((4-methoxy-3-((2-methoxyphenyl)sulfonamido)-1H-indazol-6-yl)methyl)-1H-pyrazol-4-yl)methyl)propiolamide] | ≤ 10 µM |
| C=CS(=O)(=O)NCC(=O)NCc1cnn(Cc2cc(OC)c3c(NS(=O)(=O)c4cc(CC)ccc4OC)noc3c2)c1 [compound 93, N-((1-((3-((5-ethyl-2-methoxyphenyl)sulfonamido)-4-methoxybenzo[d]isoxazol-6-yl)methyl)-1H-pyrazol-4-yl)methyl)-2-(vinylsulfonamido) acetamide] | ≤ 10 µM |
| C#CC(=O)N1CCN(c2cccc(-c3cc(OC)c4c(NS(=O)(=O)c5cc(CC)ccc5OC)noc4c3)c2)CC1 [compound 98, 5-ethyl-2-methoxy-N-(4-methoxy-6-(3-(4-propioloylpiperazin-1-yl)phenyl)benzo[d]isoxazol-3-yl) benzenesulfonamide] | ≤ 10 µM |
| COc1ccccc1S(=O)(=O)Nc1noc2cc(Cn3cc(CNS(=O)(=O)c4ccccc4)cn3)cc(OC)c12 [compound 79, 2-methoxy-N-(4-methoxy-6-((4-(phenylsulfonamidomethyl)-1H-pyrazol-1-yl)methyl)benzo[d]isoxazol-3-yl)benzenesulfonamide] | ≤ 10 µM |
| C#CC(=O)N1CCN(c2cnc(-c3cc(OC)c4c(NS(=O)(=O)c5c(OC)cccc5OC)noc4c3)s2)CC1 [compound 102, 2,6-dimethoxy-N-(4-methoxy-6-(5-(4-propioloylpiperazin-1-yl)thiazol-2-yl)benzo[d]isoxazol-3-yl)benzenesulfonamide] | ≤ 10 µM |
| C#CC(=O)N1CCCN(c2cccc(-c3cc(OC)c4c(NS(=O)(=O)c5c(OC)cccc5OC)noc4c3)c2)CC1 [compound 100, 2,6-dimethoxy-N-(4-methoxy-6-(3-(4-propioloyl-1,4-diazepan-1-yl)phenyl)benzo[d]isoxazol-3-yl)benzenesulfonamide] | ≤ 10 µM |
| C#CC(=O)N1CCC(c2cccc(-c3cc(OC)c4c(NS(=O)(=O)c5c(OC)cccc5OC)noc4c3)c2)C1 (stereo not drawn) [compound 87, 2,6-dimethoxy-N-(4-methoxy-6-(3-(1-propioloylpyrrolidin-3-yl)phenyl)benzo[d]isoxazol-3-yl)benzenesulfonamide] | ≤ 10 µM |
| C#CC(=O)N1CCN(c2csc(-c3cc(OC)c4c(NS(=O)(=O)c5c(OC)cccc5OC)noc4c3)n2)CC1 [compound 118, 2,6-dimethoxy-N-(4-methoxy-6-(4-(4-propioloylpiperazin-1-yl)thiazol-2-yl)benzo[d]isoxazol-3-yl)benzenesulfonamide] | ≤ 10 µM |
| C#CC(=O)N1CCN(c2ncc(-c3cc(OC)c4c(NS(=O)(=O)c5c(OC)cccc5OC)noc4c3)s2)CC1 [compound 106, 2,6-dimethoxy-N-(4-methoxy-6-(2-(4-propioloylpiperazin-1-yl)thiazol-5-yl)benzo[d]isoxazol-3-yl) benzenesulfonamide] | ≤ 10 µM |
